Laboratory results: patent US20240132431A1, “METHOD FOR ALKYLATING ACIDIC FUNCTIONAL GROUP” (Chugai Seiyaku Kabushiki Kaisha, priority 2021, published 2024)

Biological target: T1, Bcl-2 protein (Recombinant Human Bcl-2 Protein) (Homo sapiens, UniProt P10415)
T1 construct: purchased Novus NBP2-34889
Test: Binding evaluation of mixture library compounds to Bcl-2 using AS-MS (affinity selection mass spectrometry)
Conditions: for ASMS ratio (%) n = 1 / ASMS ratio (%) n = 2: AS-MS, mixture library, Bcl-2, ASMS Ratio(%)=(A−C)/B×100; for ASMS ratio (%) n = 1: replicate n = 1; for ASMS ratio (%) n = 2: replicate n = 2
Summary of the method: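 ASMS Ratio (%) was calculated as (A−C)/B×100, where A is the protein sample after SEC, B the protein-free sample without SEC and C the protein-free sample after SEC. Each compound was at […] in a 1200-member pool with 20 μM Bcl-2, incubated 1 h at 23° C.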

T1 sequence (P10415 whole entry): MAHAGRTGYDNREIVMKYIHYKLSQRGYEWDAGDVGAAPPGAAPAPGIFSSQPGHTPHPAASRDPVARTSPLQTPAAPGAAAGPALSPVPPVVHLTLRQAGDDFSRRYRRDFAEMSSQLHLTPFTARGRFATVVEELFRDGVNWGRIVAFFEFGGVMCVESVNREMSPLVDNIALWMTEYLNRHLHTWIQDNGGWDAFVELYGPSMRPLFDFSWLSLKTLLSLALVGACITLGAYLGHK

Row | ASMS ratio (%) n = 1 [%] | ASMS ratio (%) n = 2 [%] | ASMS ratio (%) (n = 1) | ASMS ratio (%) (n = 2) | SMILES
1 | 0.0 | 0.0 |  |  | CCOc1cccc(C#Cc2cncc(C(=O)N3CCN(c4ccc(C(=O)NS(C)(=O)=O)cc4)CC3)c2)c1 [B2I031-01, 4-[4-[5-[2-(3-Ethoxyphenyl)ethynyl]pyridine-3-carbonyl]piperazin-1-yl]-N-methylsulfonylbenzamide]
2 | −1.6 | −1.6 |  |  | CCOc1cncc(C#Cc2cncc(C(=O)N3CCN(c4ccc(C(=O)NS(C)(=O)=O)cc4)CC3)c2)c1 [B2I032-01, 4-[4-[5-[2-(5-Ethoxypyridin-3-yl)ethynyl]pyridine-3-carbonyl]piperazin-1-yl]-N-methylsulfonylbenzamide]
3 | 0.0 | 0.0 |  |  | CCOc1cccc(-c2ccccc2CCC(=O)N2CCN(c3ccc(C(=O)NS(C)(=O)=O)cc3)CC2)c1 [B2I033-01, 4-[4-[3-[2-(3-Ethoxyphenyl)phenyl]propanoyl]piperazin-1-yl]-N-methylsulfonylbenzamide]
4 | 0.0 | 1.6 |  |  | CCOc1cncc(-c2ccccc2CCC(=O)N2CCN(c3ccc(C(=O)NS(C)(=O)=O)cc3)CC2)c1 [B2I034-01, 4-[4-[3-[2-(5-Ethoxypyridin-3-yl)phenyl]propanoyl]piperazin-1-yl]-N-methylsulfonylbenzamide]
5 | 0.0 | 1.6 |  |  | CCOc1cccc(-c2ccc(C(=O)N3CCN(c4ccc(C(=O)NS(C)(=O)=O)cc4)CC3)c3ccccc23)c1 [B2I035-01, 4-[4-[4-(3-Ethoxyphenyl)naphthalene-1-carbonyl]piperazin-1-yl]-N-methylsulfonylbenzamide]
6 | −0.7 | 1.5 |  |  | CCOc1cncc(-c2ccc(C(=O)N3CCN(c4ccc(C(=O)NS(C)(=O)=O)cc4)CC3)c3ccccc23)c1 [B2I036-01, 4-[4-[4-(5-Ethoxypyridin-3-yl)naphthalene-1-carbonyl]piperazin-1-yl]-N-methylsulfonylbenzamide]
7 | 0.0 | 3.3 |  |  | CCOc1cccc(-c2cc(C(=O)N3CCN(c4ccc(C(=O)NS(C)(=O)=O)cc4)CC3)cc(C(C)(C)C)c2)c1 [B2I037-01, 4-[4-[3-tert-Butyl-5-(3-ethoxyphenyl)benzoyl]piperazin-1-yl]-N-methylsulfonylbenzamide]
8 | 0.0 | 0.0 |  |  | CCOc1cncc(-c2cc(C(=O)N3CCN(c4ccc(C(=O)NS(C)(=O)=O)cc4)CC3)cc(C(C)(C)C)c2)c1 [B2I038-01, 4-[4-[3-tert-Butyl-5-(5-ethoxypyridin-3-yl)benzoyl]piperazin-1-yl]-N-methylsulfonylbenzamide]
9 |  |  | 0.0 | 0.0 | CCOc1cccc(C#Cc2cc(C(=O)N3CCN(c4ccc(C(=O)NS(C)(=O)=O)cc4)CC3)cc(C(F)(F)F)c2)c1 [B2I041-01, 4-[4-[3-[2-(3-Ethoxyphenyl)ethynyl]-5-(trifluoromethyl)benzoyl]piperazin-1-yl]-N-methylsulfonylbenzamide]
10 |  |  | 0.0 | 0.0 | CCOc1cncc(C#Cc2cc(C(=O)N3CCN(c4ccc(C(=O)NS(C)(=O)=O)cc4)CC3)cc(C(F)(F)F)c2)c1 [B2I042-01, 4-[4-[3-[2-(5-Ethoxypyridin-3-yl)ethynyl]-5-(trifluoromethyl)benzoyl]piperazin-1-yl]-N-methylsulfonylbenzamide]
11 |  |  | 0.0 | 0.0 | CCOc1cccc(-c2cnn(-c3cc(C(=O)N4CCN(c5ccc(C(=O)NS(C)(=O)=O)cc5)CC4)cc(C(F)(F)F)c3)c2)c1 [B2I043-01, 4-[4-[3-[4-(3-Ethoxyphenyl)pyrazol-1-yl]-5-(trifluoromethyl)benzoyl]piperazin-1-yl]-N-methylsulfonylbenzamide]
12 |  |  | 0.0 | 0.0 | CCOc1cncc(-c2cnn(-c3cc(C(=O)N4CCN(c5ccc(C(=O)NS(C)(=O)=O)cc5)CC4)cc(C(F)(F)F)c3)c2)c1 [B2I044-01, 4-[4-[3-[4-(5-Ethoxypyridin-3-yl)pyrazol-1-yl]-5-(trifluoromethyl)benzoyl]piperazin-1-yl]-N-methylsulfonylbenzamide]
13 |  |  | −0.3 | 0.2 | CCOc1cccc(-c2ccccc2CN2CCN(c3ccc(C(=O)NS(C)(=O)=O)cc3)CC2)c1 [B2I045-01, 4-[4-[[2-(3-Ethoxyphenyl)phenyl]methyl]piperazin-1-yl]-N-methylsulfonylbenzamide]
14 |  |  | −0.6 | 1.5 | CCOc1cncc(-c2ccccc2CN2CCN(c3ccc(C(=O)NS(C)(=O)=O)cc3)CC2)c1 [B2I046-01, 4-[4-[[2-(5-Ethoxypyridin-3-yl)phenyl]methyl]piperazin-1-yl]-N-methylsulfonylbenzamide]
15 |  |  | 0.8 | 1.4 | CCOc1cccc(-c2ccc(CN3CCN(c4ccc(C(=O)NS(C)(=O)=O)cc4)CC3)cc2C)c1 [B2I047-01]
16 |  |  | 0.0 | 0.0 | CCOc1cncc(-c2ccc(CN3CCN(c4ccc(C(=O)NS(C)(=O)=O)cc4)CC3)cc2C)c1 [B2I048-01, 4-[4-[[4-(5-Ethoxypyridin-3-yl)-3-methylphenyl]methyl]piperazin-1-yl]-N-methylsulfonylbenzamide]
17 |  |  | 0.0 | 0.0 | CCOc1cccc(-c2ccc(CN3CCN(c4ccc(C(=O)NS(C)(=O)=O)cc4)CC3)c(CC)c2)c1 [B2I049-01, 4-[4-[[4-(3-Ethoxyphenyl)-2-ethylphenyl]methyl]piperazin-1-yl]-N-methylsulfonylbenzamide]
18 |  |  | 0.0 | −1.5 | CCOc1cncc(-c2ccc(CN3CCN(c4ccc(C(=O)NS(C)(=O)=O)cc4)CC3)c(CC)c2)c1 [B2I050-01, 4-[4-[[4-(5-Ethoxypyridin-3-yl)-2-ethylphenyl]methyl]piperazin-1-yl]-N-methylsulfonylbenzamide]
19 |  |  | 0.0 | 0.0 | CCOc1cccc(-c2ccc(CN3CCN(c4ccc(C(=O)NS(C)(=O)=O)cc4)CC3)cc2F)c1 [B2I051-01, 4-[4-[[4-(3-Ethoxyphenyl)-3-fluorophenyl]methyl]piperazin-1-yl]-N-methylsulfonylbenzamide]
20 |  |  | 0.0 | 0.0 | CCOc1cncc(-c2ccc(CN3CCN(c4ccc(C(=O)NS(C)(=O)=O)cc4)CC3)cc2F)c1 [B2I052-01, 4-[4-[[4-(5-Ethoxypyridin-3-yl)-3-fluorophenyl]methyl]piperazin-1-yl]-N-methylsulfonylbenzamide]
21 |  |  | 0.0 | 0.0 | CCOc1cccc(-c2ccc(CN3CCN(c4ccc(C(=O)NS(C)(=O)=O)cc4)CC3)c(OC)c2)c1 [B2I053-01]
22 |  |  | 0.0 | 0.0 | CCOc1cncc(-c2ccc(CN3CCN(c4ccc(C(=O)NS(C)(=O)=O)cc4)CC3)c(OC)c2)c1 [B2I054-01, 4-[4-[[4-(5-Ethoxypyridin-3-yl)-2-methoxyphenyl]methyl]piperazin-1-yl]-N-methylsulfonylbenzamide]
23 |  |  | 0.0 | 0.0 | CCOc1cccc(-c2cc(CN3CCN(c4ccc(C(=O)NS(C)(=O)=O)cc4)CC3)cc(OCC)c2)c1 [B2I055-01, 4-[4-[[3-Ethoxy-5-(3-ethoxyphenyl)phenyl]methyl]piperazin-1-yl]-N-methylsulfonylbenzamide]
